Laboratory results taken from patent US8029764B2, “Methods for detection of colorectal cancer” (The Johns Hopkins University, priority 2001, dated 2011).

Test system: colorectal tissue transcripts
Assay: SAGE of normal, adenoma and cancer colorectal tissue (transcript tag counts)
Design: species or system human
Text: In an effort to identify potential molecular markers of early colorectal tumors, we have here analyzed gene expression in benign and malignant colorectal tumors in an unbiased and comprehensive fashion. We used SAGE to analyze global gene expression in normal, benign and malignant colorectal tissue. SAGE is a gene expression profiling method that associates individual mRNA transcripts with 15-base tags derived from specific positions near their 3′ termini (3). The abundance of each tag provides a quantitative measure of the transcript level present within the mRNA population studied. SAGE is not dependent on pre-existing databases of expressed genes, and therefore provides an unbiased view of gene expression profiles. For the current study, SAGE libraries derived from two samples of normal colonic epithelium, two colorectal adenomas, and two colorectal cancers were analyzed.
SAGE. For the initial SAGE^3 of benign tumors, fresh adenomas were obtained from surgical specimens derived from FAP patients. Adenomas from FAP patients were employed because of the ready availability of small lesions and the certainty of inactivation of the APC pathway which initiates the formation of the majority of sporadic tumors. After histopathological verification of the neoplastic nature of the lesion (>70% neoplastic cells), total RNA was isolated by solubilizing the tissue in RNAgents Lysis Buffer (Promega, Madison, Wis.) followed by ultracentrifugation over a cesium chloride gradient. mRNA selection was performed from the purified total RNA using oligo(dT) cellulose (Life Technologies, Gaithersburg, Md.). […] Tags were extracted from the raw sequence data and, after excluding repeated ditags, linker sequences, and tags from the polyrnorphic Major Histocompatibility loci, the resulting tag libraries were compared and statistical analysis performed using SAGE software, version 4.0. Data from the libraries are publicly available at the Uniform Resource Locator (URL) address for the http file type found on the www host server that has a domain name of ncbi.nlm.nih.gov, and a path to the directory SAGE, and detailed SAGE protocols are available at the Uniform Resource Locator (URL) address for the http file type found on the www host server that has a domain name of sagenet.org, and file name of sage_protocol.htn.

[1] = normal colorectal tissue library 1
[2] = normal colorectal tissue library 2

Sequence | AD1 (SAGE tag count) (adenoma library 1) | AD2 (SAGE tag count) (adenoma library 2) | CA1 (SAGE tag count) (cancer library 1) | CA2 (SAGE tag count) (cancer library 2) | NC1 (SAGE tag count) [1] | NC2 (SAGE tag count) [2] | AD1 (SAGE tag count) (SAGE library AD1) | AD2 (SAGE tag count) (SAGE library AD2) | CA1 (SAGE tag count) (SAGE library CA1) | CA2 (SAGE tag count) (SAGE library CA2) | NC1 (SAGE tag count) (SAGE library NC1) | NC2 (SAGE tag count) (SAGE library NC2)
TGCCGCCCGC (chemistry not fully specified) | 2 | 2 | 1 | 0 | 14 | 5 |  |  |  |  |  | 
ACGGTCCAGG (chemistry not fully specified) |  |  |  |  |  |  | 0 | 0 | 0 | 1 | 5 | 12
CCTCCAGCTA (chemistry not fully specified) |  |  |  |  |  |  | 142 | 125 | 131 | 147 | 715 | 458
CTGGGCCTCT (chemistry not fully specified) |  |  |  |  |  |  | 2 | 2 | 3 | 3 | 22 | 22
CCGGCTTGAG (chemistry not fully specified) |  |  |  |  |  |  | 0 | 0 | 0 | 0 | 7 | 4
AATGAGAAGG (chemistry not fully specified) |  |  |  |  |  |  | 0 | 0 | 1 | 0 | 11 | 3
AAGGTAGCAG (chemistry not fully specified) |  |  |  |  |  |  | 2 | 4 | 2 | 4 | 15 | 16
TTTCTCGTCG (chemistry not fully specified) | 2 | 3 | 0 | 2 | 10 | 16 |  |  |  |  |  | 
CTGGATCTGG (chemistry not fully specified; the letters are possibly those of the target site) |  |  |  |  |  |  | 3 | 9 | 5 | 10 | 21 | 21
GCGAAACTCG (chemistry not fully specified) |  |  |  |  |  |  | 1 | 0 | 0 | 0 | 5 | 9
GGTGAAGAGG (chemistry not fully specified) |  |  |  |  |  |  | 5 | 3 | 10 | 9 | 16 | 32
GTTTAGAGGG (chemistry not fully specified) | 0 | 0 | 2 | 1 | 5 | 16 |  |  |  |  |  | 
CCACTGCACC (chemistry not fully specified) |  |  |  |  |  |  | 5 | 5 | 6 | 14 | 21 | 19
GCCAGGTTGC (chemistry not fully specified) |  |  |  |  |  |  | 1 | 1 | 1 | 1 | 14 | 5
AGAATAGCTT (chemistry not fully specified) |  |  |  |  |  |  | 3 | 9 | 11 | 30 | 44 | 67
GCTGTGCCTG (chemistry not fully specified) |  |  |  |  |  |  | 2 | 4 | 11 | 8 | 36 | 42
CTGACCTGTG (chemistry not fully specified) |  |  |  |  |  |  | 48 | 18 | 16 | 46 | 88 | 130
